Laboratory results from PubChem BioAssay AID328 (DTP/NCI, 2004).
Several values for one entry are separate records, joined by “and”; a condition that tells them apart may be missing. Equal values may be shown once. Inconclusive results and toxic doses are left out. The calls were made as follows: active = survival T/C of 150% or more; inactive = T/C below 125% in these data.

Test system: BDF1 mice, P388 leukemia ip, median survival T/C
Assay: NCI In Vivo Anticancer Drug Screen. Data for tumor model P388 Leukemia (intraperitoneal) in B6D2F1 (BDF1) mice
Conditions: endpoint: median survival time, higher = longer survival
How it was run: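 Mice carrying the transplantable tumour receive compound or vehicle. Survival is followed in each arm, and the treated measure is divided by the vehicle measure.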

[1] = dose: 100.0 mg/kg/injection, schedule: Q01DX009 (ip), vehicle: saline
[2] = dose: 100.0 mg/kg/injection, schedule: Q04DX003 (ip), vehicle: saline
[3] = dose: 200.0 mg/kg/injection, schedule: Q01DX009 (ip), vehicle: saline
[4] = dose: 200.0 mg/kg/injection, schedule: Q04DX003 (ip), vehicle: saline
[5] = dose: 400.0 mg/kg/injection, schedule: Q01DX009 (ip), vehicle: saline
[6] = dose: 400.0 mg/kg/injection, schedule: Q04DX003 (ip), vehicle: saline
[7] = dose: 100.0 mg/kg/injection, schedule: Q01DX001 (ip), vehicle: saline sonified
[8] = dose: 100.0 mg/kg/injection, schedule: Q04DX003 (ip), vehicle: saline with Tween-80
[9] = dose: 25.0 mg/kg/injection, schedule: Q01DX009 (ip), vehicle: saline with Tween-80
[10] = dose: 50.0 mg/kg/injection, schedule: Q01DX009 (ip), vehicle: saline with Tween-80
[11] = dose: 100.0 mg/kg/injection, schedule: Q01DX009 (ip), vehicle: saline with Tween-80
[12] = dose: 200.0 mg/kg/injection, schedule: Q01DX009 (ip), vehicle: saline with Tween-80

Measured: T/C

C/C=C/C(OCC)OCC
inactive: dose: 6.25 mg/kg/injection, schedule: Q04DX003 (ip), vehicle: water 95 % of control | dose: 12.5 mg/kg/injection, schedule: Q01DX009 (ip), vehicle: water 105 % of control | dose: 12.5 mg/kg/injection, schedule: Q04DX003 (ip), vehicle: water 91 % of control | dose: 25.0 mg/kg/injection, schedule: Q01DX009 (ip), vehicle: water 91 % of control | dose: 25.0 mg/kg/injection, schedule: Q04DX003 (ip), vehicle: water 92 % of control | dose: 50.0 mg/kg/injection, schedule: Q01DX009 (ip), vehicle: water 100 % of control | dose: 50.0 mg/kg/injection, schedule: Q04DX003 (ip), vehicle: water 105 % of control | dose: 100.0 mg/kg/injection, schedule: Q01DX009 (ip), vehicle: water 98 % of control | dose: 100.0 mg/kg/injection, schedule: Q04DX003 (ip), vehicle: water 113 % of control | dose: 200.0 mg/kg/injection, schedule: Q01DX009 (ip), vehicle: water 109 % of control | dose: 200.0 mg/kg/injection, schedule: Q04DX003 (ip), vehicle: water 111 % of control and 113 % of control | dose: 300.0 mg/kg/injection, schedule: Q04DX003 (ip), vehicle: water 111 % of control

O=C(C[n+]1ccc2ccccc2c1)c1ccc(Br)cc1
inactive: dose: 7.03 mg/kg/injection, schedule: Q04DX003 (ip), vehicle: saline 100 % of control | dose: 12.5 mg/kg/injection, schedule: Q01DX009 (ip), vehicle: saline 114 % of control | dose: 14.06 mg/kg/injection, schedule: Q04DX003 (ip), vehicle: saline 108 % of control | dose: 25.0 mg/kg/injection, schedule: Q01DX009 (ip), vehicle: saline 109 % of control | dose: 28.12 mg/kg/injection, schedule: Q04DX003 (ip), vehicle: saline 100 % of control | dose: 50.0 mg/kg/injection, schedule: Q01DX009 (ip), vehicle: saline 119 % of control | dose: 56.25 mg/kg/injection, schedule: Q04DX003 (ip), vehicle: saline 95 % of control | dose: 75.0 mg/kg/injection, schedule: Q01DX009 (ip), vehicle: saline 112 % of control

CC(=O)Nc1onc(C)c1[N+](=O)[O-]
inactive: [1] 100 % of control | [2] 104 % of control | [3] 100 % of control | [4] 109 % of control | [5] 104 % of control | [6] 109 % of control

CC(CC(=O)c1ccccc1)=Nc1ccccc1.CC(CC(=O)c1ccccc1)=Nc1ccccc1.[Cu]
inactive: [7] 100 % of control | dose: 200.0 mg/kg/injection, schedule: Q01DX001 (ip), vehicle: saline sonified 100 % of control | dose: 400.0 mg/kg/injection, schedule: Q01DX001 (ip), vehicle: saline sonified 90 % of control

C[N+](C)(C)C12CCCCCC1SC2 (configuration not stated)
inactive: dose: 25.0 mg/kg/injection, schedule: Q04DX003 (ip), vehicle: saline 106 % of control | dose: 50.0 mg/kg/injection, schedule: Q04DX003 (ip), vehicle: saline 101 % of control

Cc1ccccc1-c1nc2cc(Cl)ccc2c(=O)o1
inactive: dose: 25.0 mg/kg/injection, schedule: Q04DX003 (ip), vehicle: saline with Tween-80 104 % of control | dose: 50.0 mg/kg/injection, schedule: Q04DX003 (ip), vehicle: saline with Tween-80 100 % of control | [8] 109 % of control

CN(CCCOS(C)(=O)=O)CCCOS(C)(=O)=O
active: dose: 5.0 mg/kg/injection, schedule: Q01DX010 (ip), vehicle: saline 150 % of control | dose: 10.0 mg/kg/injection, schedule: Q01DX010 (ip), vehicle: saline 196 % of control | dose: 19.0 mg/kg/injection, schedule: Q04DX003 (ip), vehicle: saline 172 % of control | [9] 263 % of control | dose: 29.0 mg/kg/injection, schedule: Q04DX003 (ip), vehicle: saline with Tween-80 209 % of control | dose: 40.0 mg/kg/injection, schedule: Q01DX010 (ip), vehicle: saline 230 % of control | dose: 66.0 mg/kg/injection, schedule: Q04DX003 (ip), vehicle: saline with Tween-80 300 % of control | [8] 300 % of control | dose: 150.0 mg/kg/injection, schedule: Q04DX003 (ip), vehicle: saline 254 % of control
inactive: dose: 2.2 mg/kg/injection, schedule: Q04DX003 (ip), vehicle: saline 104 % of control | dose: 3.4 mg/kg/injection, schedule: Q04DX003 (ip), vehicle: saline 113 % of control | dose: 80.0 mg/kg/injection, schedule: Q01DX010 (ip), vehicle: saline 107 % of control | [2] 118 % of control | dose: 150.0 mg/kg/injection, schedule: Q04DX003 (ip), vehicle: saline with Tween-80 100 % of control

COC(=O)C1(C)N=C(Cc2ccccc2)OO1 (configuration not stated)
inactive: [9] 100 % of control | [10] 110 % of control | [11] 105 % of control

C/C(=C\c1ccc(Cl)cc1)C(C)(C)C(=O)O
inactive: [10] 104 % of control | [11] 102 % of control | [12] 95 % of control

NC(N)=NC(N)=Nc1ccc(S(=O)(=O)O)cc1
inactive: [11] 103 % of control | [12] 97 % of control | dose: 400.0 mg/kg/injection, schedule: Q01DX009 (ip), vehicle: saline with Tween-80 94 % of control

CC1(C)CC1(Br)Br
inactive: dose: 12.5 mg/kg/injection, schedule: Q01DX009 (ip), vehicle: saline with Tween-80 100 % of control | [9] 106 % of control | [11] 98 % of control and 100 % of control

Nc1cc(C(=O)Nc2ccc(CCNC3=NCCN3)cc2)ccc1C(=O)Nc1ccc(CCNC2=NCCN2)cc1
active: dose: 6.0 mg/kg/injection, schedule: Q01DX009 (ip), vehicle: saline with Tween-80 157 % of control | dose: 6.7 mg/kg/injection, schedule: Q01DX009 (ip), vehicle: saline with Tween-80 157 % of control | dose: 10.0 mg/kg/injection, schedule: Q01DX009 (ip), vehicle: saline with Tween-80 192 % of control and 215 % of control | dose: 15.0 mg/kg/injection, schedule: Q01DX009 (ip), vehicle: saline with Tween-80 230 % of control | dose: 18.0 mg/kg/injection, schedule: Q04DX003 (ip), vehicle: saline with Tween-80 150 % of control and 163 % of control | dose: 20.0 mg/kg/injection, schedule: Q01DX009 (ip), vehicle: saline with Tween-80 230 % of control | dose: 20.0 mg/kg/injection, schedule: Q04DX003 (ip), vehicle: saline with Tween-80 163 % of control | dose: 26.0 mg/kg/injection, schedule: Q04DX003 (ip), vehicle: saline with Tween-80 150 % of control and 177 % of control | dose: 40.0 mg/kg/injection, schedule: Q04DX003 (ip), vehicle: saline with Tween-80 250 % of control and 200 % of control | dose: 60.0 mg/kg/injection, schedule: Q04DX003 (ip), vehicle: saline with Tween-80 162 % of control
inactive: dose: 2.6 mg/kg/injection, schedule: Q01DX009 (ip), vehicle: saline with Tween-80 123 % of control | dose: 5.0 mg/kg/injection, schedule: Q04DX003 (ip), vehicle: saline with Tween-80 109 % of control and 113 % of control | dose: 8.0 mg/kg/injection, schedule: Q04DX003 (ip), vehicle: saline with Tween-80 118 % of control | dose: 10.0 mg/kg/injection, schedule: Q04DX003 (ip), vehicle: saline with Tween-80 109 % of control | dose: 12.0 mg/kg/injection, schedule: Q04DX003 (ip), vehicle: saline with Tween-80 118 % of control

Cc1cc(=O)[nH]c2c1CCCCC2
inactive: dose: 50.0 mg/kg/injection, schedule: Q01DX001 (ip), vehicle: saline sonified 104 % of control | [7] 95 % of control

Oc1cc(Cl)c(Cl)c(Cl)c1
inactive: dose: 100.0 mg/kg/injection, schedule: Q04DX002 (ip), vehicle: saline with Tween-80 102 % of control | dose: 200.0 mg/kg/injection, schedule: Q04DX002 (ip), vehicle: saline with Tween-80 98 % of control | dose: 400.0 mg/kg/injection, schedule: Q04DX002 (ip), vehicle: saline with Tween-80 97 % of control

COC(=O)C1(C)CSCCC1=O (configuration not stated)
inactive: [1] 105 % of control | [2] 100 % of control | [3] 105 % of control | [4] 100 % of control | [5] 95 % of control | [6] 95 % of control

COc1ccc(CCn2nnc3ccccc3c2=O)cc1OC
inactive: [10] 98 % of control | [11] 99 % of control | [12] 105 % of control

CC1(C)CC2(CC(C)(C)c3cc(O)c(O)cc32)c2cc(O)c(O)cc21
inactive: dose: 100.0 mg/kg/injection, schedule: Q04DX003 (ip), vehicle: saline sonified 109 % of control | dose: 200.0 mg/kg/injection, schedule: Q04DX003 (ip), vehicle: saline sonified 104 % of control | dose: 400.0 mg/kg/injection, schedule: Q04DX003 (ip), vehicle: saline sonified 100 % of control
